Results from US20040253261A1, “Biological compositions and methods for treatment of pancreatic cancer” (priority 2003, published 2004).
Where two headings read alike, the source gives them in different places.

Key:
[1] = test system: mouse pancreatic cancer cell line MPC-83; assay: kun ming mouse model of pancreatic cancer (MPC-83), growth of tumors; settings: MPC-83-bearing kun ming mice, 30 consecutive days of treatment, sacrificed on 31st day from tumor inoculation
Experimental: (§1) The biological composition comprising 10^8 cells per ml of activated and conditioned yeast cells of the strain Saccharomyces cerevisiae Hansen strain IFFI 1413 was prepared by the methods described in Section 5.1 and subsections therein.
The mice injected with tumor cells were kept for 5 days and were divided into 4 experimental groups of ten mice per group and one control group. The four experimental groups were triplicated (i.e., using a total of 120 mice in the experimental groups).
The mice received the biological compositions, untreated yeast cells, MMC or saline on the same day as the tumor cells were transplanted. The mice in group CK2 also started receiving saline on the same day as the other four groups. The biological compositions, untreated yeast cells and saline were administered orally by a feeding tube and the MMC by intravenous injection for 30 consecutive days.

[2] = test system: mouse pancreatic cancer cell line MPC-83; settings: for Number of live animals remaining in the groups after 30 days of treatment: 30 mice per group
Experimental: (§2) The survival time of mice after tumor injection and treatment was studied.
The biological composition comprising 10^8 per ml of activated and conditioned yeast cells of the strain Saccharomyces cerevisiae Hansen strain IFFI 1413 was prepared by the methods described in Section 5.1 and subsections therein.
The animals were prepared in a similar manner as described in Section 8.1.
The mice injected with tumor cells were kept for 5 days and were divided into 4 experimental groups of ten mice per group and one control group. The four experimental groups were triplicated (i.e., using a total of 120 mice in the experimental groups). In group 2AY, the mice received 0.5 ml of the biological composition once per day. In group 2NY, the mice received 0.5 ml of the untreated yeast cells once per day. In group 2MMC, the mice were injected intravenously with 1.5×10^5 units of mitomycin C (MMC) per kg body weight per day. In group 2CK1, the mice received 0.5 ml of physiological saline once per day.
The mice received the biological compositions, untreated yeast cells, MMC or saline on the same day as the tumor cells were transplanted. The mice in group 2CK2 also started receiving saline on the same day as the other four groups. The biological compositions, untreated yeast cells and saline were administered orally by a feeding tube and the MMC by intravenous injection for 30 consecutive days. The mice were observed over 6 months from the day of tumor inoculation and survival was recorded. The weight of the mice as well as the weight of the tumor were determined by standard techniques.

[3] = test system: pancreatic cancer tumor cells; assay: BALB/c mouse model of human pancreatic cancer, growth of tumors; settings: tumor-bearing BALB/c mice, 30 consecutive days of treatment, sacrificed on 31st day from tumor inoculation
Experimental: as §1
The mice injected with tumor cells were divided into 4 experimental groups of ten mice per group and one control group. The four experimental groups were triplicated (i.e., using a total of 120 mice in the experimental groups).
The mice in group CK2 also started receiving saline on the same day as the other four groups. The biological compositions, untreated yeast cells and saline were administered orally by a feeding tube and the VDS by intravenous injection for 30 consecutive days.

[4] = test system: pancreatic cancer tumor cells; settings: for Number of live animals remaining in the groups after 30 days of treatment: 30 mice per group
Experimental: as §2, §1
The animals were prepared in a similar manner as described in Section 6.1.
The mice injected with tumor cells were divided into 4 experimental groups of ten mice per group and one control group. The four experimental groups were triplicated (i.e., using a total of 120 mice in the experimental groups). In group 2AY, the mice received 0.3 ml of the biological composition once per day. In group 2NY, the mice received 0.3 ml of the untreated yeast cells once per day. In group 2VDS, the mice were injected intravenously with 3 mg of vindesine (VDS) per kg body weight once a week for four weeks. In group 2CK1, the mice received 0.3 ml of physiological saline once per day.
The mice received the biological compositions, untreated yeast cells, VDS or saline on the same day as the tumor cells were transplanted. The mice in group 2CK2 also started receiving saline on the same day as the other four groups. The biological compositions, untreated yeast cells and saline were administered orally by a feeding tube and the VDS by intravenous injection for 30 consecutive days. The mice were observed over 6 months from the day of tumor inoculation and survival was recorded. The weight of the mice as well as the weight of the tumor were determined by standard techniques.

[5] = 0 month after cessation of treatment
[6] = 1 month after cessation of treatment
[7] = 2 months after cessation of treatment
[8] = 3 months after cessation of treatment
[9] = 4 months after cessation of treatment
[10] = 5 months after cessation of treatment
[11] = 6 months after cessation of treatment
[12] = mice that survived, observed over 6 months from tumor inoculation

## CO[C@@]12[C@H](COC(N)=O)C3=C(C(=O)C(C)=C(N)C3=O)N1C[C@@H]1N[C@@H]12 [Group MMC, mitomycin C]
[1]
  mean weight of mice and standard deviation: 18.3 ± 1.5 g
  mean weight of tumor nodules and standard deviation: 2.8 ± 1.2 g
[2]; [5]
  Number of live animals remaining in the groups after 30 days of treatment: 30
[2]; [6]
  Number of live animals remaining in the groups after 30 days of treatment: 27
[2]; [7]
  Number of live animals remaining in the groups after 30 days of treatment: 21
[2]; [8]
  Number of live animals remaining in the groups after 30 days of treatment: 7
[2]; [9]
  Number of live animals remaining in the groups after 30 days of treatment: 0
[2]; [10]
  Number of live animals remaining in the groups after 30 days of treatment: 0
[2]; [11]
  Number of live animals remaining in the groups after 30 days of treatment: 0
[2]; kun ming mice, 30 days of treatment, from injection of tumor cells
  survival time of mice bearing pancreatic cancer cells: all died after four months
[2]; [12]
  mean weight of mice and standard deviation: all animals dead
  mean weight of tumor nodules and standard deviation: all animals dead
[3]
  mean weight of mice and standard deviation: 18.9 ± 3.4 g
  mean weight of tumor nodules and standard deviation: 1.37 ± 0.7 mg

## CC[C@]1(O)C[C@@H]2CN(CCc3c([nH]c4ccccc34)[C@@](C(=O)OC)(c3cc4c(cc3OC)N(C)[C@H]3[C@@](O)(C(N)=O)[C@H](O)[C@]5(CC)C=CCN6CC[C@]43[C@@H]65)C2)C1 [Group 2VDS, vindesine]
[4]; [5]
  Number of live animals remaining in the groups after 30 days of treatment: 30
[4]; [6]
  Number of live animals remaining in the groups after 30 days of treatment: 30
[4]; [7]
  Number of live animals remaining in the groups after 30 days of treatment: 27
[4]; [8]
  Number of live animals remaining in the groups after 30 days of treatment: 27
[4]; [9]
  Number of live animals remaining in the groups after 30 days of treatment: 11
[4]; [10]
  Number of live animals remaining in the groups after 30 days of treatment: 0
[4]; [11]
  Number of live animals remaining in the groups after 30 days of treatment: 0
[4]; BALB/c mice, 30 days of treatment, from injection of tumor cells
  survival time of mice bearing pancreatic cancer cells: all died after four months
[4]; [12]
  mean weight of mice and standard deviation: all animals dead
  mean weight of tumor nodules and standard deviation: all animals dead
